In the NIST ThermoML archive (doi:10.1021/je500513b):

Experiment: mn = molality of the nth substance listed, in mol/kg
Conditions: for surface tension liquid-gas: Pendant drop shape; for electrical conductivity: 100 kPa, Liquid, Mettler Toledo inLab 710

CCCCCCCCCCCC[N+](C)(C)CCCCCC[N+](C)(C)CCCCCCCCCCCC.[Br-].[Br-] + O
Conditions | electrical conductivity [S/m] | surface tension liquid-gas [mN/m]
298.15 K, m1 = 0.0001 | – | 61.45
298.15 K, m1 = 0.0002 | – | 53.1
298.15 K, m1 = 0.0004 | – | 47.33
298.15 K, m1 = 0.00056 | 0.0115 | –
298.15 K, m1 = 0.00059 | 0.0123 | –
298.15 K, m1 = 0.0006 | – | 42.35
298.15 K, m1 = 0.00063 | 0.0132 | –
298.15 K, m1 = 0.00067 | 0.0138 | –
298.15 K, m1 = 0.0007 | – | 40.01
298.15 K, m1 = 0.00071 | 0.0147 | –
298.15 K, m1 = 0.00077 | 0.0159 | –
298.15 K, m1 = 0.0008 | – | 38.21
298.15 K, m1 = 0.00083 | 0.017 | –
298.15 K, m1 = 0.00085 | – | 38.13
298.15 K, m1 = 0.00087 | 0.0176 | –
298.15 K, m1 = 0.0009 | – | 37.83
298.15 K, m1 = 0.00091 | 0.0182 | –
298.15 K, m1 = 0.00095 | 0.0188 | –
298.15 K, m1 = 0.001 | 0.0194 | 37.53
298.15 K, m1 = 0.00105 | 0.02 | –
298.15 K, m1 = 0.0011 | – | 37.34
298.15 K, m1 = 0.00111 | 0.0206 | –
298.15 K, m1 = 0.00118 | 0.0212 | –
298.15 K, m1 = 0.0012 | – | 37.28
298.15 K, m1 = 0.00125 | 0.0219 | –
298.15 K, m1 = 0.00133 | 0.0225 | –
298.15 K, m1 = 0.00143 | 0.0231 | –
298.15 K, m1 = 0.0015 | – | 37.38
298.15 K, m1 = 0.00154 | 0.024 | –
298.15 K, m1 = 0.00167 | 0.0249 | –
298.15 K, m1 = 0.00182 | 0.0259 | –
298.15 K, m1 = 0.002 | 0.0269 | 37.23
303.15 K, m1 = 0.00057 | 0.0136 | –
303.15 K, m1 = 0.00061 | 0.0143 | –
303.15 K, m1 = 0.00065 | 0.0151 | –
303.15 K, m1 = 0.00068 | 0.0158 | –
303.15 K, m1 = 0.00071 | 0.0166 | –
303.15 K, m1 = 0.00075 | 0.0173 | –
303.15 K, m1 = 0.0008 | 0.0183 | –
303.15 K, m1 = 0.00083 | 0.0189 | –
303.15 K, m1 = 0.00087 | 0.0196 | –
303.15 K, m1 = 0.00091 | 0.0202 | –
303.15 K, m1 = 0.00095 | 0.0209 | –
303.15 K, m1 = 0.001 | 0.0216 | –
303.15 K, m1 = 0.00105 | 0.0223 | –
303.15 K, m1 = 0.00111 | 0.023 | –
303.15 K, m1 = 0.00118 | 0.0237 | –
303.15 K, m1 = 0.00125 | 0.0244 | –
303.15 K, m1 = 0.00133 | 0.0252 | –
303.15 K, m1 = 0.00143 | 0.0261 | –
303.15 K, m1 = 0.00154 | 0.027 | –
303.15 K, m1 = 0.0016 | 0.0276 | –
303.15 K, m1 = 0.00167 | 0.0281 | –
303.15 K, m1 = 0.00174 | 0.0287 | –
303.15 K, m1 = 0.00182 | 0.0293 | –
303.15 K, m1 = 0.0019 | 0.03 | –
303.15 K, m1 = 0.002 | 0.0307 | –
308.15 K, m1 = 0.00065 | 0.0167 | –
308.15 K, m1 = 0.00068 | 0.0175 | –
308.15 K, m1 = 0.00071 | 0.0182 | –
308.15 K, m1 = 0.00075 | 0.0193 | –
308.15 K, m1 = 0.0008 | 0.0203 | –
308.15 K, m1 = 0.00083 | 0.0209 | –
308.15 K, m1 = 0.00087 | 0.0217 | –
308.15 K, m1 = 0.00091 | 0.0225 | –
308.15 K, m1 = 0.00095 | 0.0232 | –
308.15 K, m1 = 0.001 | 0.024 | –
308.15 K, m1 = 0.00105 | 0.0248 | –
308.15 K, m1 = 0.00111 | 0.0257 | –
308.15 K, m1 = 0.00118 | 0.0266 | –
308.15 K, m1 = 0.00125 | 0.0275 | –
308.15 K, m1 = 0.00133 | 0.0284 | –
308.15 K, m1 = 0.00143 | 0.0294 | –
308.15 K, m1 = 0.00154 | 0.0306 | –
308.15 K, m1 = 0.0016 | 0.0312 | –
308.15 K, m1 = 0.00167 | 0.0318 | –
308.15 K, m1 = 0.00174 | 0.0325 | –
308.15 K, m1 = 0.00182 | 0.0332 | –
308.15 K, m1 = 0.0019 | 0.0339 | –
308.15 K, m1 = 0.002 | 0.0346 | –
313.15 K, m1 = 0.00057 | 0.0163 | –
313.15 K, m1 = 0.00061 | 0.0171 | –
313.15 K, m1 = 0.00065 | 0.0182 | –
313.15 K, m1 = 0.00068 | 0.0191 | –
313.15 K, m1 = 0.00071 | 0.02 | –
313.15 K, m1 = 0.00075 | 0.021 | –
313.15 K, m1 = 0.0008 | 0.0222 | –
313.15 K, m1 = 0.00083 | 0.023 | –
313.15 K, m1 = 0.00087 | 0.024 | –
313.15 K, m1 = 0.00091 | 0.0248 | –
313.15 K, m1 = 0.00095 | 0.0259 | –
313.15 K, m1 = 0.001 | 0.0269 | –
313.15 K, m1 = 0.00105 | 0.0278 | –
313.15 K, m1 = 0.00111 | 0.0288 | –
313.15 K, m1 = 0.00118 | 0.0299 | –
313.15 K, m1 = 0.00125 | 0.0308 | –
313.15 K, m1 = 0.00133 | 0.0321 | –
313.15 K, m1 = 0.00143 | 0.0333 | –
313.15 K, m1 = 0.00154 | 0.0347 | –
313.15 K, m1 = 0.0016 | 0.0353 | –
313.15 K, m1 = 0.00167 | 0.036 | –
313.15 K, m1 = 0.00174 | 0.0368 | –
313.15 K, m1 = 0.00182 | 0.0376 | –
313.15 K, m1 = 0.0019 | 0.0384 | –
313.15 K, m1 = 0.002 | 0.0392 | –
318.15 K, m1 = 0.00057 | 0.0184 | –
318.15 K, m1 = 0.00061 | 0.0193 | –
318.15 K, m1 = 0.00065 | 0.0206 | –
318.15 K, m1 = 0.00069 | 0.0222 | –
318.15 K, m1 = 0.00074 | 0.0237 | –
318.15 K, m1 = 0.0008 | 0.0254 | –
318.15 K, m1 = 0.00085 | 0.0265 | –
318.15 K, m1 = 0.00091 | 0.0281 | –
318.15 K, m1 = 0.00095 | 0.0292 | –
318.15 K, m1 = 0.001 | 0.0302 | –
318.15 K, m1 = 0.00104 | 0.031 | –
318.15 K, m1 = 0.00109 | 0.0318 | –
318.15 K, m1 = 0.00114 | 0.0328 | –
318.15 K, m1 = 0.00119 | 0.0337 | –
318.15 K, m1 = 0.00125 | 0.0347 | –
318.15 K, m1 = 0.00132 | 0.0358 | –
318.15 K, m1 = 0.00139 | 0.0368 | –
318.15 K, m1 = 0.00147 | 0.038 | –
318.15 K, m1 = 0.00156 | 0.0393 | –
318.15 K, m1 = 0.00167 | 0.0406 | –
318.15 K, m1 = 0.00172 | 0.0413 | –
318.15 K, m1 = 0.00179 | 0.042 | –
318.15 K, m1 = 0.00185 | 0.0428 | –
318.15 K, m1 = 0.00192 | 0.0437 | –
318.15 K, m1 = 0.002 | 0.0446 | –
323.15 K, m1 = 0.00065 | 0.022 | –
323.15 K, m1 = 0.00069 | 0.0235 | –
323.15 K, m1 = 0.00074 | 0.025 | –
323.15 K, m1 = 0.0008 | 0.0271 | –
323.15 K, m1 = 0.00085 | 0.0288 | –
323.15 K, m1 = 0.00091 | 0.0305 | –
323.15 K, m1 = 0.00095 | 0.0317 | –
323.15 K, m1 = 0.001 | 0.0331 | –
323.15 K, m1 = 0.00104 | 0.0343 | –
323.15 K, m1 = 0.00109 | 0.0355 | –
323.15 K, m1 = 0.00114 | 0.0367 | –
323.15 K, m1 = 0.00119 | 0.038 | –
323.15 K, m1 = 0.00125 | 0.0393 | –
323.15 K, m1 = 0.00132 | 0.0406 | –
323.15 K, m1 = 0.00139 | 0.0418 | –
323.15 K, m1 = 0.00147 | 0.0433 | –
323.15 K, m1 = 0.00156 | 0.0443 | –
323.15 K, m1 = 0.00167 | 0.0455 | –
323.15 K, m1 = 0.00172 | 0.0464 | –
323.15 K, m1 = 0.00179 | 0.0473 | –
323.15 K, m1 = 0.00185 | 0.0482 | –
323.15 K, m1 = 0.00192 | 0.0491 | –
323.15 K, m1 = 0.002 | 0.0501 | –

O [water] + CCCCCCCCCCCCCC[N+](C)(C)CCC[N+](C)(C)CCCCCCCCCCCCCC.[Br-].[Br-]
Conditions | surface tension liquid-gas [mN/m]
298.15 K, m2 = 0 | 71.98
